Test results: patent publication US20110009394A1, “TRICYCLIC NITROGEN COMPOUNDS AND THEIR USE AS ANTIBACTERIAL AGENTS” (Glaxo Group Limited, priority 2008, published 2011)
Where a name gives a salt, the structure may show the parent alone.

The molecules below were run on Mycobacterium tuberculosis H37Rv (assay: Mycobacterium tuberculosis H37Rv Inhibition Assay). Settings: ATCC 25618 / H37Rv, H37Rv strain (ATCC25618), Middlebrook 7H9+ADC, resazurin fluorescence, read-out: MIC value.
Assay type: cell-based
`Cl.O=c1cnc2ccc(=O)n3c2n1CC[C@H]3CN1CCC(NCc2ccc3c(c2)OCCO3)CC1` [Example 17B, (6S)-6-({4-[(2,3-Dihydro-1,4-benzodioxin-6-ylmethyl)amino]-1-piperidinyl}methyl)-5,6-dihydro-3H,4H,7H-1,3a,6a-triazaphenalene-3,7-dione hydrochloride] was tested, and the MIC was < 4 µg/mL.

Same assay, conditions: ATCC 25618 / H37Rv, read-out: MIC value
With `O=c1ccc2ncc(=O)n3c2n1CC[C@H]3CN1CCC(NCc2cc3c(cn2)OCCS3)CC1` [Example 9, (4S)-4-({4-[(2,3-Dihydro[1,4]oxathiino[2,3-c]pyridin-7-ylmethyl)amino]-1-piperidinyl}methyl)-5,6-dihydro-3H,4H,7H-1,3a,6a-triazaphenalene-3,7-dione dihydrochloride] the MIC was > 4 µg/mL. With `O=C1CSc2ccc(CNC3CCN(CC4CCn5c(=O)cnc6ccc(=O)n4c65)CC3)nc2N1` (stereo not drawn) [Example 4, 6-[(4-{[(3-oxo-3,4-dihydro-2H-pyrido[3,2-b][1,4]thiazin-6-yl)methyl]amino}-1-piperidinyl)methyl]-5,6-dihydro-3H,4H,7H-1,3a,6a-triazaphenalene-3,7-dione dihydrochloride] the MIC was < 400 µg/mL. In the case of `O=c1ccc2ncc(=O)n3c2n1CCC3CN1CCC(NCc2cc3c(cn2)OCS3)CC1` (stereo not drawn) [Example 8, 4-({4-[([1,3]Oxathiolo[5,4-c]pyridin-6-ylmethyl)amino]-1-piperidinyl}methyl)-5,6-dihydro-3H,4H,7H-1,3a,6a-triazaphenalene-3,7-dione dihydrochloride], the MIC is reported as > 4 µg/mL. For `O=c1ccc2ccc(=O)n3c2n1CCC3CN1CCC(NCc2cc3c(cn2)OCS3)CC1` (stereo not drawn) [Example 11, 5-({4-[([1,3]Oxathiolo[5,4-c]pyridin-6-ylmethyl)amino]-1-piperidinyl}methyl)-6,7-dihydro-3H,5H,9H-pyrimido[1,2,3-ij]-1,8-naphthyridine-3,9-dione dihydrochloride], the MIC was < 4 µg/mL. In the case of `O=c1cnc2ccc(=O)n3c2n1CCC3CN1CCC(NCc2cc3c(cn2)OCS3)CC1` (stereo not drawn) [Example 2, 6-({4-[([1,3]Oxathiolo[5,4-c]pyridin-6-ylmethyl)amino]-1-piperidinyl}methyl)-5,6-dihydro-3H,4H,7H-1,3a,6a-triazaphenalene-3,7-dione dihydrochloride], the MIC is reported as > 4 µg/mL. With `O=c1cnc2ccc(=O)n3c2n1CC[C@H]3CN1CCC(NCc2cc3c(cc2F)OCCO3)CC1` [Example 16, (6S)-6-[(4-{[(7-Fluoro-2,3-dihydro-1,4-benzodioxin-6-yl)methyl]amino}-1-piperidinyl)methyl]-5,6-dihydro-3H,4H,7H-1,3a,6a-triazaphenalene-3,7-dione dihydrochloride] the MIC was > 4 µg/mL. In the case of `N#Cc1cc(CNC2CCN(C[C@@H]3CCn4c(=O)cnc5ccc(=O)n3c54)CC2)cc2c1OCCO2` [Example 15, 7-{[(1-{[(6S)-3,7-Dioxo-5,6-dihydro-3H,4H,7H-1,3a,6a-triazaphenalen-6-yl]methyl}-4-piperidinyl)amino]methyl}-2,3-dihydro-1,4-benzodioxin-5-carbonitrile dihydrochloride], the MIC is reported as < 4 µg/mL. `O=c1cnc2ccc(=O)n3c2n1CCC3CN1CCC(NCc2cc3c(cn2)OCCO3)CC1` (stereo not drawn) [Example 1, 6-([4-[(2,3-Dihydro[1,4]dioxino[2,3-c]pyridin-7-ylmethyl)amino]-1-piperidinyl]methyl)-5,6-dihydro-3H,4H,7H-1,3a,6a-triazaphenalene-3,7-dione dihydrochloride] was tested, and the MIC was > 4 µg/mL.
